Reference: US9394520B2, “Expansion of hematopoietic stem cells” (University of Rochester, priority 2006, dated 2016)

System: Jagged1
Experiment: Jagged1 protein by Western blot in UMR106 cells
Assay type: cell-based
Conditions: UMR106 cells after treatment with PGE2, Western blot, antibody C-20
Experimental: UMR 106 cells were serum starved for 24 hours and then treated with a single dose of vehicle (controls) or PGE2 at a concentration of 10^-7 M. RNA was collected from both control and treated samples to assess the fold change in Jagged1 mRNA by real time RT-PCR analysis corrected for by beta-actin. FIG. 1B is a Western blot showing total protein that was collected from both control and treated samples exposed to Jagged1 antibody, C20. Positive control (+ctr) was provided by HS27a cells, a human stromal cell line with high levels of Jagged1 protein, while HS5 cells from a human stromal cell line with minimal Jagged1 levels were used as a negative control. FIG. 2A is a graph showing that inhibition of PKA blocks PGE2-dependent increase of Jagged1 in UMR 106 cells. UMR106 cells were serum starved for 24 hours. They were pre-treated with H89 for 30 minutes followed by a single dose of PGE2 at 10^-7 M or vehicle. RNA was collected from both control and treated samples to assess the fold change in Jagged1 RNA by real time RT-PCR analysis corrected for by β-actin. […] UMR106 cells were serum starved for 24 hours. […] Total RNA was extracted and analyzed by real time RT-PCR, normalizing for β-actin expression and t=0. Total protein was analyzed by Western blots performed using the […] system (Invitrogen, Carlsbad, Calif.). […]

CCCCC[C@H](O)/C=C/[C@H]1[C@H](O)CC(=O)[C@@H]1C/C=C\CCCC(=O)O [PGE2, Prostaglandin E2]
Jagged1 protein: increased
